We go through one compound from US10500178B2, “LTB4 inhibition to prevent and treat human lymphedema” (The Board of Trustees of the Leland Stanford Junior …, priority 2015, dated 2019).

In one test the test system is LEC Notch1−/− mice. The experiment in a line: lymphedema surgery in LEC Notch1-/- mice. Format: in vivo, mouse. The text has this:
To generate lymphatic endothelial specific tdTomato reporter mice (Prox1-Cre-ER-tdTomato), Prox1-Cre-ER mice were crossed with tdTomato mice. To create lymphatic endothelial cell specific Notch1 or S1pr1 conditional knockouts, Prox1-Cre-ER mice were crossed with Notch1loxp/loxp or S1pr1loxp/loxp mice. Mice with Prox1-Cre-ER and both target alleles floxed by Prox1-Cre-ER/Notch1^loxp/loxp or Prox1-Cre-ER/S1pr1^loxp/loxp were considered to be either lymphatic endothelial cell-specific Notch1 knockout (LEC Notch1−/−) or S1pr1 knockout (LEC S1pr1^−/−), respectively. Mice expressing Prox1-Cre-ER were used as WT controls. […] Cre-mediated gene knockout efficiency was evaluated by enumerating Notch1- or S1PR1-expressing lymphatic endothelial cells or by qRT-PCR measurements of Notch1 or S1pr1 transcripts in the lymphatic endothelial cells, sorted by flow cytometry. […]
Tail volume quantitation. Tail-volume measurements at each designated time were quantified by observers blinded to the treatment status of the subjects. Tail volumes were calculated through a digital photographic technique pre-operatively, and post-operatively (d3, d9, d14, d20, and d24), using an Olympus D520 Zoom digital camera at SHQ resolution at a fixed distance from the subject (37 cm), as previously described. […]

The subject of another test is secondary leg lymphedema. The experiment in a line: study of ubenimex in patients with secondary leg lymphedema. The class given is in vivo, human. To be noted: oral 150 mg three times daily, 6-month treatment period. On the procedure: A study is conducted for treatment of patients with acquired lymphedema of the lower extremities with ubenimex. In this study, ubenimex is evaluated over a 6-month treatment period to determine the effect on dermal thickness and other efficacy measures in patients with secondary leg lymphedema. The efficacy, safety and tolerability of ubenimex in this patient population is characterized. Adult male and female subjects are enrolled with a confirmed diagnosis of Stage II or greater secondary leg lymphedema, based on a positive lymphoscintigraphy (LSG) study of the affected leg. At least 20 individuals are enrolled in each of the treatment and placebo arm of the trial. Individuals are given oral 150 mg ubenimex three times daily for a total daily dose of 450 mg. The drug and placebo are provided in a capsule form. Efficacy assessments include skin thickness (as measured by skinfold calipers), leg volume (as measured by standardized tape measure), bioimpedance (as measured by the […]) to measure 4-limb bioimpedance to determine extracellular fluid volume), and skin biopsy results (as measured by 6-mm skin punch biopsy samples to assess skin thickness and architecture (e.g., presence of hyperkeratosis, dermal collagen, and adipose deposition).

The subject of another test is Notch signaling. The experiment in a line: Notch signaling in mouse lymphedema (NICD, Hey1, EphrinB2). Format: in vivo. The settings on record: WT mice. As for the experimental part: (§1) All small molecule drugs were administered through daily intraperitoneal injection.
Western Blot HLECs were lysed with RIPA buffer containing protease and phosphatase inhibitors. Lysates were sonicated briefly and centrifuged. The supernatant was collected and protein concentration was determined by BCA assay. 60 µg of protein were resolved on a 10% SDS-PAGE gel, transferred to a nitrocellulose membrane, blocked with 5% milk and probed with one of the following antibodies: anti-Sphk1 (3297,Cell Signaling); antip-Sphk1(SP1641, ECM Biosciences); anti-NICD (ab8925,Abcam), anti-VEGFR3 (AF743,R&D); anti-DLL4 (ab7280, Abcam). Actin was used to normalize the total protein. […] Images were acquired by Zeiss 710 confocal microscopy and analyzed using ImageJ software.
Quantitative RT-PCR. Quantitative PCR (qRT-PCR) was performed using FastStart SYBR Green (Roche) on a Lightcycler 480. mRNA expression relative to GAPDH mRNA levels were calculated using the delta-delta threshold cycle (ΔΔCT) method. […]

Test [1] relates to acquired lymphedema surgically induced in the tails of female C57BL/6J mice. In words: mouse-tail model of acquired lymphedema (tail volume, histology). The class given is in vivo. On the procedure:
Surgical induction of experimental lymphatic vascular insufficiency. […] Briefly, a full-thickness circumferential incision of the skin was made 16 mm distal to the base of the mouse tail under anesthesia. Lymphatic trunks were ablated through controlled, limited cautery application under the surgical microscope. For surgical controls (sham animals), the skin incision alone was performed without lymphatic cautery.
as §1
Tail volume quantitation. Tail-volume measurements at each designated time were quantified by observers blinded to the treatment status of the subjects. Tail volumes were calculated through a digital photographic technique pre-operatively, and post-operatively (d3, d9, d14, d20, and d24), using an Olympus D520 Zoom digital camera at SHQ resolution at a fixed distance from the subject (37 cm), as previously described. Tail volumes were derived from the measurement of the tail diameter using the truncated cone approximation. Microlymphangiography was performed by injecting FITC-dextran (size: 2000 kDa) subcutaneously into mouse tails on post-surgery d24. Images were taken 20 minutes after injection.
Viral particles were mixed with Lipofectamine 2,000 (5% final vol/vol, Invitrogen) before injection, to increase transduction efficiency. qRT-PCR, immunofluorescence and fluorescence in situ hybridization were used to evaluate the silencing efficiency in the mouse tail skin 24d after surgery.

As for `CC(C)C[C@H](NC(=O)[C@@H](O)[C@H](N)Cc1ccccc1)C(=O)O` [bestatin, (2S)-2-[[(2S,3R)-3-amino-2-hydroxy-4-phenylbutanoyl]amino]-4-methylpentanoic acid], in the test with LEC Notch1−/− mice, the “response of lymphedema to therapy” value is “refractory”. Moreover, the “mural smooth muscle coverage around collecting lymphatics” value in the test with LEC Notch1−/− mice (as against WTs) is given as “not restituted”. For the same compound, the “difference between ubenimex and placebo treatment arms by clinical indicia” value in the test with secondary leg lymphedema is listed as “statistically significant difference”. In addition, in the test with Notch signaling, the “Hey1 and EphrinB2 expression in diseased lymphatics” value is listed as “normalized”; the “NICD nuclear accumulation in mouse lymphedema” value is “restored”. Moreover, the “benefit of LTB4 antagonism administered prior to surgery” value in test [1] (therapies administered prior to sham and lymphedema surgery (bestatin, Ly293111 from d0, shLtb4r1 on d(−7))) was “not beneficial”. In addition, the “amelioration of lymphedema (serial tail-volume measurements over 24d)” value in test [1] (therapies started on post-surgery d3 (late LTB4 antagonism)) is listed as “demonstrated therapeutic amelioration of lymphedema”. In test [1] (therapy initiated 9d or 14d post-surgically), the “reversal of more established disease by delayed dosing” value is recorded as “effective”.
